Experimental data reported in patent publication US20260132127A1, “NOVEL SPIRO COMPOUND” (MITSUBISHI TANABE PHARMA CORPORATION, priority 2021, published 2026).

What follows are compounds tested against T1, human TRH-DE (Homo sapiens, UniProt Q9UKU6) (assay: TRH-DE inhibition test (RapidFire MS measurement of product Cyclo (His-Pro))). Conditions: membrane fraction of Expi 293 cells expressing human TRH-DE; 10 μM TRH substrate; room temperature, 2 hours; 16-point concentration test.
T1 construct: expressed in transfected cells; host or cells: Expi 293 cells (transient expression), membrane fraction
T1 sequence (Q9UKU6 1-1069): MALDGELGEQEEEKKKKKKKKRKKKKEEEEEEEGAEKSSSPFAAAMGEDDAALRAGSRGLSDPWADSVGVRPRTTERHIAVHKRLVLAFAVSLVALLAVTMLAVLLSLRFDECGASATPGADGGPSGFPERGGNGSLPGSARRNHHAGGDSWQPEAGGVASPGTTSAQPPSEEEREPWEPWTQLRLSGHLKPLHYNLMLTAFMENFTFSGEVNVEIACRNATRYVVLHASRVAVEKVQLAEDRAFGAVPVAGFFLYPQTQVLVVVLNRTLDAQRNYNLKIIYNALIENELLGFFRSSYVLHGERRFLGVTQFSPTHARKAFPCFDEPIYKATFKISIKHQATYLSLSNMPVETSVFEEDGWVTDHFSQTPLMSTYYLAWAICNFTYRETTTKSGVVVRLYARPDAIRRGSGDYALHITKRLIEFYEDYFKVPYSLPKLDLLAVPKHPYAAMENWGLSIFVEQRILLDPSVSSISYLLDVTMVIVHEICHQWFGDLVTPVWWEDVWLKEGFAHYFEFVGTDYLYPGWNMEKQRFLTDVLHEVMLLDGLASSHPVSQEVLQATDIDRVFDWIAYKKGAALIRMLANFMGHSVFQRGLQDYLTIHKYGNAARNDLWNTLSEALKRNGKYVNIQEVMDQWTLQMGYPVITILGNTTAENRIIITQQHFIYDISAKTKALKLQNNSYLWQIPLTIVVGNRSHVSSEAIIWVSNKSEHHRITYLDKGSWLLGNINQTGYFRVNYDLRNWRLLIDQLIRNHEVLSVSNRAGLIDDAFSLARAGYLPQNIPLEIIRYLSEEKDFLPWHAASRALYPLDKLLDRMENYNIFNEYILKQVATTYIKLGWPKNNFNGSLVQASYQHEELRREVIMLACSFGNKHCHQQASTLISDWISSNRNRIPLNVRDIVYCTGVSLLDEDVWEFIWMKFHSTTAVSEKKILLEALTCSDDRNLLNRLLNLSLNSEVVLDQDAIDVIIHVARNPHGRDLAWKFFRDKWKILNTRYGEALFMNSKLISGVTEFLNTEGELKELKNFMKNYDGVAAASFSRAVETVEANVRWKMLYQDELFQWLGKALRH
Format: biochemical
Method in brief: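 Inhibition derived from product/internal-standard ratios of Cyclo(His-Pro), quantified by RapidFire triple-quadrupole MS after acetonitrile:methanol quench, with IC50 fitted over 16 concentrations. Enzyme source: membranes of Expi 293 cells transiently expressing human TRH-DE, 4 μg/ml, pH 7.4 phosphate buffer. Incubation with 10 μM substrate ran 2 h at room temperature.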

IC50 | Structure (SMILES)
5 nM | C[C@@H]1COc2nc(Cl)cnc2C(=O)N1C1CC2(C1)CN(S(=O)(=O)c1ccccc1F)C2 [Example 40, (7R)-3-chloro-8-[2-(2-fluorophenyl)sulfonyl-2-azaspiro[3.3]heptan-6-yl]-7-methyl-6,7-dihydropyrazino[2,3-f][1,4]oxazepin-9-one]
70 nM | CC[C@@H]1COc2ncc(F)cc2C(=O)N1C1CC2(C1)CN(S(=O)(=O)c1ccccc1F)C2 [Example 41]
9 nM | C[C@@H]1COc2nc(F)ccc2C(=O)N1C1CC2(C1)CN(S(=O)(=O)c1ccccc1F)C2 [Example 42]
32 nM | CC[C@@H]1COc2nc(F)ccc2C(=O)N1C1CC2(C1)CN(S(=O)(=O)c1ccccc1F)C2 [Example 43]
14 nM | C[C@@H]1COc2nc(C(F)(F)F)ncc2C(=O)N1C1CC2(C1)CN(S(=O)(=O)c1ccccc1F)C2 [Example 44]
42 nM | C[C@@H]1COc2cc(C3CC3)ncc2C(=O)N1C1CC2(C1)CN(S(=O)(=O)c1ccccc1[N+](=O)[O-])C2 [Example 53]
54 nM | C[C@@H]1COc2nc(C3CC3)ccc2C(=O)N1C1CC2(C1)CN(S(=O)(=O)c1ccccc1[N+](=O)[O-])C2 [Example 55]
8 nM | C[C@@H]1COc2nc(C(F)(F)F)ccc2C(=O)N1C1CC2(C1)CN(S(=O)(=O)c1ccccc1F)C2 [Example 56]
253 nM | C[C@@H]1COc2nc(C(F)(F)F)ccc2C(=O)N1C1CC2(C1)CN(S(=O)(=O)c1ccccc1[N+](=O)[O-])C2 [Example 57]
180 nM | Cc1nc2c(cc1F)C(=O)N(C1CC3(C1)CN(S(=O)(=O)c1ccccc1[N+](=O)[O-])C3)[C@H](C)CO2 [Example 58]
49 nM | O=C1c2cccnc2OC[C@@H](C2CC2)N1C1CC2(C1)CN(S(=O)(=O)c1ccccc1F)C2 [Example 60]
653 nM | O=C1c2cccnc2OCC2(CC2)N1C1CC2(C1)CN(S(=O)(=O)c1ccccc1F)C2 [Example 61]
393 nM | O=C1c2ccc(C(F)(F)F)nc2OCC2(CC2)N1C1CC2(C1)CN(S(=O)(=O)c1ccccc1F)C2 [Example 62]
120 nM | O=C1c2cccnc2CC(C(F)(F)F)N1C1CC2(C1)CN(S(=O)(=O)c1ccccc1F)C2 (centres unmarked) [Example 68]
66 nM | CCn1c2ccccc2c(=O)n1C1CC2(C1)CN(S(=O)(=O)c1cc(C)ccc1F)C2 [Example 69]
25 nM | Cc1ccc(F)c(S(=O)(=O)N2CC3(CC(N4C(=O)c5cccnc5OCC4C)C3)C2)c1 (centres unmarked) [Example 70, 4-[2-(2-fluoro-5-methyl-phenyl)sulfonyl-2-azaspiro[3.3]heptan-6-yl]-3-methyl-2,3-dihydropyrido[3,2-f][1,4]oxazepin-5-one]
85 nM | CC1COc2ncccc2C(=O)N1C1CC2(C1)CN(S(=O)(=O)c1ccccc1)C2 (centres unmarked) [Example 84, 4-[2-(benzenesulfonyl)-2-azaspiro[3.3]heptan-6-yl]-3-methyl-2,3-dihydropyrido[3,2-f][1,4]oxazepin-5-one]
23 nM | Cc1nc2c(s1)C(=O)N(C1CC3(C1)CN(S(=O)(=O)c1ccccc1F)C3)[C@H](C)CC2 [Example 90]
8 nM | C[C@@H]1CCc2nc(C(C)(F)F)sc2C(=O)N1C1CC2(C1)CN(S(=O)(=O)c1ccccc1F)C2 [Example 91]
4 nM | C[C@@H]1CCc2nc([C@H]3C[C@H]3F)sc2C(=O)N1C1CC2(C1)CN(S(=O)(=O)c1ccccc1F)C2 [Example 95]
2 nM | C[C@@H]1CCc2nc([C@@H]3C[C@@H]3F)sc2C(=O)N1C1CC2(C1)CN(S(=O)(=O)c1ccccc1F)C2 [Example 96]
3 nM | C[C@@H]1CCc2nc(C3(C(F)(F)F)CC3)sc2C(=O)N1C1CC2(C1)CN(S(=O)(=O)c1ccccc1F)C2 [Example 97]
16 nM | Cc1snc2c1CC[C@@H](C)N(C1CC3(C1)CN(S(=O)(=O)c1ccccc1F)C3)C2=O [Example 99]
16 nM | Cc1nsc2c1C(=O)N(C1CC3(C1)CN(S(=O)(=O)c1ccccc1F)C3)[C@H](C)CC2 [Example 100]

IC50 | Structure (SMILES)
14 nM | C[C@@H]1CCc2oc(C3CC3)nc2C(=O)N1C1CC2(C1)CN(S(=O)(=O)c1ccccc1F)C2 [Example 101]
10 nM | Cc1onc2c1CC[C@@H](C)N(C1CC3(C1)CN(S(=O)(=O)c1ccccc1F)C3)C2=O [Example 103]
14 nM | CC1CCc2c(noc2C2CC2)C(=O)N1C1CC2(C1)CN(S(=O)(=O)c1ccccc1F)C2 (centres unmarked) [Example 104]
14 nM | Cc1noc2c1C(=O)N(C1CC3(C1)CN(S(=O)(=O)c1ccccc1F)C3)[C@H](C)CC2 [Example 105]
3 nM | C[C@@H]1CCc2nc(C3(F)CC3)sc2C(=O)N1C1CC2(C1)CN(S(=O)(=O)c1ccccc1F)C2 [Example 109, (6R)-2-(1-fluorocyclopropyl)-5-[2-(2-fluorophenyl)sulfonyl-2-azaspiro[3.3]heptan-6-yl]-6-methyl-7,8-dihydro-6H-thiazolo[5,4-c]azepin-4-one]
4 nM | CC(C)c1nc2c(s1)C(=O)N(C1CC3(C1)CN(S(=O)(=O)c1ccccc1F)C3)[C@H](C)CC2 [Example 110, (6R)-5-[2-(2-fluorophenyl)sulfonyl-2-azaspiro[3.3]heptan-6-yl]-2-isopropyl-6-methyl-7,8-dihydro-6H-thiazolo[5,4-c]azepin-4-one]
60 nM | CC1C=Cc2nc(C(F)(F)F)ccc2C(=O)N1C1CC2(C1)CN(S(=O)(=O)c1ccccc1F)C2 (centres unmarked) [Example 111, 6-[2-(2-fluorophenyl)sulfonyl-2-azaspiro[3.3]heptan-6-yl]-7-methyl-2-(trifluoromethyl)-7H-pyrido[3,2-c]azepin-5-one]
116 nM | Cc1nc2c(s1)C(=O)N(C1CC3(C1)CN(S(=O)(=O)c1ccccc1F)C3)[C@H](C)C=C2 [Example 116]
46 nM | C[C@@H]1C=Cc2nc(C(C)(F)F)sc2C(=O)N1C1CC2(C1)CN(S(=O)(=O)c1ccccc1F)C2 [Example 117]
21 nM | C[C@@H]1C=Cc2nc(C3(F)CC3)sc2C(=O)N1C1CC2(C1)CN(S(=O)(=O)c1ccccc1F)C2 [Example 121]
15 nM | C[C@@H]1C=Cc2nc([C@@H]3C[C@@H]3F)sc2C(=O)N1C1CC2(C1)CN(S(=O)(=O)c1ccccc1F)C2 [Example 122]
15 nM | C[C@@H]1C=Cc2nc([C@H]3C[C@H]3F)sc2C(=O)N1C1CC2(C1)CN(S(=O)(=O)c1ccccc1F)C2 [Example 123]
17 nM | C[C@@H]1C=Cc2nc(C3(C(F)(F)F)CC3)sc2C(=O)N1C1CC2(C1)CN(S(=O)(=O)c1ccccc1F)C2 [Example 124]
24 nM | Cc1snc2c1C=C[C@@H](C)N(C1CC3(C1)CN(S(=O)(=O)c1ccccc1F)C3)C2=O [Example 126]
21 nM | Cc1nsc2c1C(=O)N(C1CC3(C1)CN(S(=O)(=O)c1ccccc1F)C3)[C@H](C)C=C2 [Example 127]
224 nM | C[C@@H]1C=Cc2oc(C3CC3)nc2C(=O)N1C1CC2(C1)CN(S(=O)(=O)c1ccccc1F)C2 [Example 128]
136 nM | Cc1onc2c1C=C[C@@H](C)N(C1CC3(C1)CN(S(=O)(=O)c1ccccc1F)C3)C2=O [Example 130]
131 nM | Cc1noc2c1C(=O)N(C1CC3(C1)CN(S(=O)(=O)c1ccccc1F)C3)[C@H](C)C=C2 [Example 132]
4 nM | CC1C2C(c3nc(C4CC4)sc3C(=O)N1C1CC3(C1)CN(S(=O)(=O)c1ccccc1F)C3)C2(F)F (stereo not drawn) [Example 133, (2R*,4S*,5R*)-10-cyclopropyl-3,3-difluoro-6-[2-(2-fluorophenyl)sulfonyl-2-azaspiro[3.3]heptan-6-yl]-5-methyl-9-thia-6,11-diazatricyclo[6.3.0.02.4]undec-1(8),10-dien-7-one]
2 nM | C[C@@H]1COc2cc(N3CCOCC3)ncc2C(=O)N1C1CC2(C1)CN(S(=O)(=O)c1ccccc1F)C2 [Example 134, (3R)-4-[2-(2-fluorophenyl)sulfonyl-2-azaspiro[3.3]heptan-6-yl]-3-methyl-8-morpholino-2,3-dihydropyrido[3,4-f][1,4]oxazepin-5-one]
1 nM | CCCCN(C)c1cc2c(cn1)C(=O)N(C1CC3(C1)CN(S(=O)(=O)c1ccccc1F)C3)[C@H](C)CO2 [Example 135]
1 nM | C[C@@H]1COc2cc(NC3CCCC3)ncc2C(=O)N1C1CC2(C1)CN(S(=O)(=O)c1ccccc1F)C2 [Example 136]
1 nM | C[C@@H]1COc2cc(N(C)C3CCCC3)ncc2C(=O)N1C1CC2(C1)CN(S(=O)(=O)c1ccccc1F)C2 [Example 137]
